Columns and labels:
[1] = molecular target: T1, Prolyl endopeptidase FAP (Homo sapiens, UniProt Q12884); assay: Inhibition of FAP
T1 sequence (Q12884 whole entry): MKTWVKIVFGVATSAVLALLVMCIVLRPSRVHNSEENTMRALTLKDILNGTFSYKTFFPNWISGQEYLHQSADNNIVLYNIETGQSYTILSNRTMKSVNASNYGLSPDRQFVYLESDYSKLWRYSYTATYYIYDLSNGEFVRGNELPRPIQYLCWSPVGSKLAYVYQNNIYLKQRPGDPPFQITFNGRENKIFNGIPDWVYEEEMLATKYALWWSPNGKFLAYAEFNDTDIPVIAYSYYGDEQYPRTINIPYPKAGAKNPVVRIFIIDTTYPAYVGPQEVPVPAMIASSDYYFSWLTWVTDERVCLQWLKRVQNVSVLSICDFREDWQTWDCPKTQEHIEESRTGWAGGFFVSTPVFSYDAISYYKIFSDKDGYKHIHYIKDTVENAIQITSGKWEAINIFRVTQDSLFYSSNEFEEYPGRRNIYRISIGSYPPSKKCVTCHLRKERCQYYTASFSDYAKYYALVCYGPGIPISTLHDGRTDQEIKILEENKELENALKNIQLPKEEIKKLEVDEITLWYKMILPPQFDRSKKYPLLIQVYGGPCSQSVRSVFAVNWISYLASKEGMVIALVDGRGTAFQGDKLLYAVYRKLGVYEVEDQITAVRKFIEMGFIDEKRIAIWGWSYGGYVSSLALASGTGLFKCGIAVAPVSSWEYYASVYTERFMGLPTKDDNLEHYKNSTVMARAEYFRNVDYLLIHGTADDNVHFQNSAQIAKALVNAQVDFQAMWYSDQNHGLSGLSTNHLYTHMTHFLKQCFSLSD

[2] = molecular target: Dipeptidyl peptidase 9 (Homo sapiens, UniProt Q86TI2); assay: Inhibition of DPP9
[3] = molecular target: Dipeptidyl peptidase 8 (Homo sapiens, UniProt Q6V1X1); assay: Inhibition of DPP8
[4] = molecular target: Dipeptidyl peptidase 2 (Homo sapiens, UniProt Q9UHL4); assay: Inhibition of QPP
[5] = molecular target: T2, Xaa-Pro dipeptidase (Homo sapiens, UniProt P12955); assay: Inhibition of prolidase
T2 sequence (P12955 whole entry): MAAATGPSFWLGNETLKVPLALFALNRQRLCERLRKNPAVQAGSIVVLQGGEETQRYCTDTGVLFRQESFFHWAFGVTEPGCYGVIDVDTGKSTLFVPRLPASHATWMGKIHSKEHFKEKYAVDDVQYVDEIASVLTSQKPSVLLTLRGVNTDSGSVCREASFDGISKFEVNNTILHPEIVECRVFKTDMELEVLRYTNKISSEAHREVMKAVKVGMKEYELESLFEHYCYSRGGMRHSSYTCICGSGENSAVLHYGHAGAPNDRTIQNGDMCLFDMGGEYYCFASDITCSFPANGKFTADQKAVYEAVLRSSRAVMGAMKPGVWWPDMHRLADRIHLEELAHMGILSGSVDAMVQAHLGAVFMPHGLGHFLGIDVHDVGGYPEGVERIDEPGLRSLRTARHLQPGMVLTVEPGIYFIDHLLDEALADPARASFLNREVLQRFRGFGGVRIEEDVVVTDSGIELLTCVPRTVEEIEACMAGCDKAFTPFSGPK

[6] = molecular target: Dipeptidyl peptidase 4 (Homo sapiens, UniProt P27487)
[7] = molecular target: Xaa-Pro aminopeptidase 1 (Homo sapiens, UniProt Q9NQW7); assay: Inhibition of amino peptidase P
Sequence of Xaa-Pro aminopeptidase 1 (Q9NQW7 whole entry): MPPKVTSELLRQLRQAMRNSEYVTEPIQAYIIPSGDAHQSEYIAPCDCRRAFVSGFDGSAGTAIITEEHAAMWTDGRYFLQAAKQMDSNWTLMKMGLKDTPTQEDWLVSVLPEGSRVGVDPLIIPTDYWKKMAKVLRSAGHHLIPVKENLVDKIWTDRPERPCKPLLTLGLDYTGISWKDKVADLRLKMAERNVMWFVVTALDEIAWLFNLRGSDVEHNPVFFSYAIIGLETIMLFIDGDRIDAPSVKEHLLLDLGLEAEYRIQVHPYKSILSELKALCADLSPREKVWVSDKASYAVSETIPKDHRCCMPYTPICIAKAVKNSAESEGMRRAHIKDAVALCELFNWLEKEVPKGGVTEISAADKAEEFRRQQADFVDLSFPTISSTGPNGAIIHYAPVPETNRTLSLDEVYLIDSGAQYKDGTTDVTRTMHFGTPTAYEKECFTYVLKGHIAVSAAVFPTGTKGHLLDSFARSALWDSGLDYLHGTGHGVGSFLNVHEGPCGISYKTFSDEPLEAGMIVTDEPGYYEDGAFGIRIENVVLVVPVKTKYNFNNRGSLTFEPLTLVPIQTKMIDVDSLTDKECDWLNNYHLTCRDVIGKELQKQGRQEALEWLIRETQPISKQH

Sequence of Dipeptidyl peptidase 9 (Q86TI2 whole entry): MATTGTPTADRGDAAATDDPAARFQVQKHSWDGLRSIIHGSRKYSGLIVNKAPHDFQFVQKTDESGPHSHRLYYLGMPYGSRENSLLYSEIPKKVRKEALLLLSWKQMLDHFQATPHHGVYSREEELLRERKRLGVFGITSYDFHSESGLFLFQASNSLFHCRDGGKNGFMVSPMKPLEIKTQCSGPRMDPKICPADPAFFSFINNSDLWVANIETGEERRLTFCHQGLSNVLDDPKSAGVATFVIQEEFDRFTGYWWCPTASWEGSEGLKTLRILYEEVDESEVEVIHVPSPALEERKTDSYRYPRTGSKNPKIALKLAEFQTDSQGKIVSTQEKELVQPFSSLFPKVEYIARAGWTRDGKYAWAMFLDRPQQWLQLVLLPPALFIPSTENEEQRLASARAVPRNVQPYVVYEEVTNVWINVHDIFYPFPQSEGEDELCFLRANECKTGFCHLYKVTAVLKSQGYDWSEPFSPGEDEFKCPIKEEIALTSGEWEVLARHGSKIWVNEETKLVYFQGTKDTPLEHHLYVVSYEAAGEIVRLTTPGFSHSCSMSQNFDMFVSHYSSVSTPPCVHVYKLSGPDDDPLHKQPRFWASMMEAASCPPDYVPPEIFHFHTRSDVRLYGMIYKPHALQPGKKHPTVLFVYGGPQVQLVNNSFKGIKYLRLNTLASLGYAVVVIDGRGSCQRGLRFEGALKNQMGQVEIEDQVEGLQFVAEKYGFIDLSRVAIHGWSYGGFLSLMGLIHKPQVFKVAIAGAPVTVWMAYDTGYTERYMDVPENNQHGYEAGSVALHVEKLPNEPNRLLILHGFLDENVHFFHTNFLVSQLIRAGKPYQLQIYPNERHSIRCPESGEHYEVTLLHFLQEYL
Sequence of Dipeptidyl peptidase 4 (P27487 whole entry): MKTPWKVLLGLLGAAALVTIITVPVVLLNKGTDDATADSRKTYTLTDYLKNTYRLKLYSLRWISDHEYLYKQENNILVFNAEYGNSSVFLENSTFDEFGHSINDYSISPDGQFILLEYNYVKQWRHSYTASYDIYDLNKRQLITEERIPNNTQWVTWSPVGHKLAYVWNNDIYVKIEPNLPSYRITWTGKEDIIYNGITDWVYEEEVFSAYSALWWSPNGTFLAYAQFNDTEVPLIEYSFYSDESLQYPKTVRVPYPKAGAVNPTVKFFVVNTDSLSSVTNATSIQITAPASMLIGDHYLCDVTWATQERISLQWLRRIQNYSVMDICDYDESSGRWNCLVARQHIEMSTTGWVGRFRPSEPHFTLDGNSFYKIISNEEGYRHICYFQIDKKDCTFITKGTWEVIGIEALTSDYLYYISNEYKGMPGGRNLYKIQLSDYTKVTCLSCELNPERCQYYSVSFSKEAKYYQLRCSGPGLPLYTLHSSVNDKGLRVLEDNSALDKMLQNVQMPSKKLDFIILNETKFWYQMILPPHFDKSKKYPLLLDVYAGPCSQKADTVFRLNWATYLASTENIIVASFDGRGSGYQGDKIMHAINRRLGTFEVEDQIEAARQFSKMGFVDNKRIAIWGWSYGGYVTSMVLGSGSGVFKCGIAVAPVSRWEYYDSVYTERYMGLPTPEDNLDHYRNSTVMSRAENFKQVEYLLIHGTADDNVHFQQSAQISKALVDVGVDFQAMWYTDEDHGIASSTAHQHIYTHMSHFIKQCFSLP
Sequence of Dipeptidyl peptidase 8 (Q6V1X1 whole entry): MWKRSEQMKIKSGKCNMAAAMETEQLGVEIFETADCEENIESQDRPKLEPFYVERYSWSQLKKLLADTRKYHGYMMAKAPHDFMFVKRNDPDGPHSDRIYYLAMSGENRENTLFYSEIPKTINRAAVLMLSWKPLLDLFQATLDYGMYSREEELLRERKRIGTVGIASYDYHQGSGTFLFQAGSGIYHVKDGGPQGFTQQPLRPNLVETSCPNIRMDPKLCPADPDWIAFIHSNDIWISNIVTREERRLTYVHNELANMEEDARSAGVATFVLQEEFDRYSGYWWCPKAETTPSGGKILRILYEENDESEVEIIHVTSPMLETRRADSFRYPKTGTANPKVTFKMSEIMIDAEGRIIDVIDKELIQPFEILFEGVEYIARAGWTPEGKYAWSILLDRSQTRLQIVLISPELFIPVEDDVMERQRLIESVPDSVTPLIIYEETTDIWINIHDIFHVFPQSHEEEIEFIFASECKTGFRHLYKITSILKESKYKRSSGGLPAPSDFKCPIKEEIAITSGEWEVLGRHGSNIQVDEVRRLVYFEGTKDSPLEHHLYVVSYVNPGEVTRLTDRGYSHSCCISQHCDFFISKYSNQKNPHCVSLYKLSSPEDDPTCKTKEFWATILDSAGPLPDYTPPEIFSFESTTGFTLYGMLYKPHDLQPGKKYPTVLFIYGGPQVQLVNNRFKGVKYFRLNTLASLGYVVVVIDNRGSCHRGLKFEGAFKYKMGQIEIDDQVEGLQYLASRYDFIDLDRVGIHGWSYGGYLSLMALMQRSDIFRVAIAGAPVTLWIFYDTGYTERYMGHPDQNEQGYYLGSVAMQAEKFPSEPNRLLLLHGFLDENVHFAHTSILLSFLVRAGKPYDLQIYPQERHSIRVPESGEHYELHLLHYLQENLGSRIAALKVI

IC50 [1] [µM]	IC50 [2] [µM]	IC50 [3] [µM]	IC50 [4] [µM]	IC50 [5] [µM]	IC50 [6] [µM]	IC50 [7] [µM]	SMILES
> 10	24	0.622	52	> 10	0.00066	> 10	N[C@@H](CC(=O)N1CCn2c(nnc2C(F)(F)F)C1Cc1ccccc1)Cc1cc(F)c(F)cc1F (stereo in doubt; 42b)
> 10	23	23	> 100	> 10	0.023	> 10	C[C@H]1CN(C(=O)C[C@H](N)Cc2cc(F)c(F)cc2F)Cc2ccc(C(F)(F)F)n21
> 10	> 100	> 100	> 100	> 10	0.113	> 10	CCC1c2nnc(C(F)(F)F)n2CCN1C(=O)C[C@H](N)Cc1cc(F)c(F)cc1F (stereo in doubt; 38a)
> 10	54	66	77	> 10	0.092	> 10	CC1(C)CN(C(=O)C[C@H](N)Cc2cc(F)c(F)cc2F)Cc2nnc(C(F)(F)F)n21
> 10	> 100	> 100	> 100	> 10	0.587	> 10	N[C@@H](CC(=O)N1CCn2c(nnc2C(F)(F)F)C1Cc1cc(C(F)(F)F)cc(C(F)(F)F)c1)Cc1cc(F)c(F)cc1F (stereo in doubt; 48a)
> 10	> 100	> 100	76	> 10	0.131	> 10	N[C@@H](CC(=O)N1CCn2c(nnc2C(F)(F)F)C1Cc1ccccc1F)Cc1cc(F)c(F)cc1F (stereo in doubt; 45a)
> 10	> 100	> 100	83	> 10	0.438	> 10	N[C@@H](CC(=O)N1CCn2c(nnc2C(F)(F)F)C1Cc1ccccc1C(F)(F)F)Cc1cc(F)c(F)cc1F (stereo in doubt; 44a)
> 10	> 100	75	> 100	> 10	0.042	> 10	C[C@@H]1Cn2c(nnc2C(F)(F)F)CN1C(=O)C[C@H](N)Cc1cc(F)c(F)cc1F
> 10	> 100	8	41	> 10	0.00031	> 10	N[C@@H](CC(=O)N1CCn2c(nnc2C(F)(F)F)C1Cc1ccccc1C(F)(F)F)Cc1cc(F)c(F)cc1F (stereo in doubt; 44b)
> 10	> 100	40	> 100	> 10	0.09	> 10	N[C@@H](CC(=O)N1CCn2c(nnc2C(F)(F)F)C1C(O)c1ccc(F)cc1)Cc1cc(F)c(F)cc1F (stereo in doubt; 47c)
> 10	> 100	> 100	48	> 10	0.43	> 10	N[C@@H](CC(=O)N1CCn2c(nnc2C(F)(F)F)C1C(O)c1ccc(F)cc1)Cc1cc(F)c(F)cc1F (stereo in doubt; 47a)
				> 10		> 10	N[C@@H](CC(=O)N1CCNCC1)Cc1ccccc1F
				> 10		> 10	N[C@@H](CC(=O)N1CCNC[C@H]1Cc1ccccc1)Cc1ccccc1F

SMILES	IC50 [1] [µM]	IC50 [2] [µM]	IC50 [3] [µM]	IC50 [4] [µM]	IC50 [5] [µM]	IC50 [6] [µM]	IC50 [7] [µM]
CC1c2nnc(C(F)(F)F)n2C(C)CN1C(=O)C[C@H](N)Cc1cc(F)c(F)cc1F (stereo in doubt; 16a)	> 10	> 100	> 100	> 100	> 10	0.1	> 10
C[C@H]1c2nnc(C(F)(F)F)n2[C@@H](C)CN1C(=O)C[C@H](N)Cc1cc(F)c(F)cc1F	> 10	> 100	> 100	> 100	> 10	0.209	> 10

Reference: ChEMBL document CHEMBL1140747, “Discovery of potent and selective dipeptidyl peptidase IV inhibitors derived from beta-aminoamides bearing subsituted triazolopiperazines” (J Med Chem, 2008)
